# Measurements taken from paper PMC6006164, “Natural cyclopeptide RA-V inhibits the NF-κB signaling pathway by targeting TAK1” (Cell Death & Disease, 2018).
# Assays:
# [1] = biological target: T1, TAK1 (Homo sapiens, UniProt O43318); test: Streptavidin agarose pull-down with biotin-tagged probe CB12; assay type: binding; details: lysates of HEK293T transfected with TAK1; RA-V in 10-fold excess
# T1 construct: expressed in transfected cells; host or cells: HEK293T
# T1 sequence (O43318 1-579 isoform O43318-2): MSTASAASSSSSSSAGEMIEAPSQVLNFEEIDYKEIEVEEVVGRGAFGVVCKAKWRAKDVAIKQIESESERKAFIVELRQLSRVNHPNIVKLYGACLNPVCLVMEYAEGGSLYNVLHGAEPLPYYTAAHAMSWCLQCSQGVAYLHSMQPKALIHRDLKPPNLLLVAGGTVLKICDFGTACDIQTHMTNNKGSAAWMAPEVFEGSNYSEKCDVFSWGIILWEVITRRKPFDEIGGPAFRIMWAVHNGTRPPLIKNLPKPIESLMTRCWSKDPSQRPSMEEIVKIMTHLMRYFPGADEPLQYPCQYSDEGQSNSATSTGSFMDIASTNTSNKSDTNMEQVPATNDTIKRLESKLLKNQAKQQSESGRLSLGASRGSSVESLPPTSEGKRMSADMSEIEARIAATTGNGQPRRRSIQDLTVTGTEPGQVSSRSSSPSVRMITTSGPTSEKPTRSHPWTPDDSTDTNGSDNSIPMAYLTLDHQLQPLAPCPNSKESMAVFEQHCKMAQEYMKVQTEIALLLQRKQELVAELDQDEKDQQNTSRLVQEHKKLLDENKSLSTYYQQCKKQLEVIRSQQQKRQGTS
# Method: HEK293T cells were transfected with TAK1 for 24 h, then the cell lysates were incubated with biotin or CB12 followed by streptavidin agarose pull-down. […] HEK293T cells were transfected with the indicated plasmids for 24 h. The cell lysates were pulled down with streptavidin agarose and then immunoblotted with HA or Flag antibody. Each experiment was repeated at least three times
# HEK293T cells were transfected with TAK1-N or TAK1-C for 24 h. The cells lysates were incubated with CB12 or biotin and precipitated with streptavidin-coated sepharose and were analyzed by immunoblotting with Flag antibody. b The model for RA-V binding to the crystal structure of the TAK1–TAB1 fusion protein (PDB 4GS6). […] HEK293T cells were transfected with TAK1 for 24 h, and then the cell lysates were incubated with biotin or CB12 before precipitation with streptavidin agarose. […] HeLa cells were incubated with various concentrations of RA-V for 12 h and then treated with 10 ng/mL TNF-α for 10 min. The cell lysates were prepared and western blotted with the indicated antibodies. Each experiment was repeated at least three times
# HEK293T cells were harvested and lysed in RIPA buffer with protease inhibitors. […] The samples were separated by SDS-PAGE, and the bound proteins were detected using the indicated antibodies.
# [2] = biological target: T2, TAK1–TRAF6 interaction (Homo sapiens, UniProt O43318); test: Co-immunoprecipitation of TAK1 and TRAF6; assay type: cell-based; details: HEK293T, Flag-TAK1 and HA-TRAF6; RA-V 800 nM 6 h
# T2 construct: expressed in transfected cells; host or cells: HEK293T
# T2 sequence (O43318 1-579 isoform O43318-2): T1 sequence (O43318 1-579 isoform O43318-2)
# Method: Fig. 4 RA-V blocks the interaction between TAK1 and TAB2. a RA-V blocked the exogenous TAK1–TAB2 interaction. HEK293T cells were transfected with Flag-TAK1 and HA-TAB2 for 24 h and then incubated with various concentrations of RA-V for 6 h. […] HEK293T cells were transfected with Flag-TAK1 and HA-TRAF6 or HA-TAB1 for 24 h and then incubated with RA-V (800 nM) for 6 h. The cell lysates were immunoprecipitated with HA antibody, and immunoblots were performed with the indicated antibodies. d RA-V blocked the endogenous TAK1–TAB2 interaction. HEK293T (left) or RAW264.7 (right) cells were incubated with 800 nM RA-V for 6 h and stimulated with 10 ng/mL TNF-α for 2 h or 1 μg/mL LPS for 3 h, respectively. The cell lysates were immunoprecipitated with TAK1 antibody or control IgG and then immunoblotted with the indicated antibodies. Each experiment was repeated at least three times
# The cell lysates were prepared using radioimmunoprecipitation (RIPA) buffer containing 50 mM Tris-HCl pH 7.4, 150 mM NaCl, 1 mM ethylenediaminetetraacetic acid, 1% Triton X-100, 0.5% deoxycholate, and 0.1% sodium dodecyl sulfate, to which protease inhibitors (Roche) were added. The lysates were incubated with the indicated antibodies before adding 20 μL of Protein A/G agarose for 2 h. After four washes with the same buffer, the immunoprecipitates were boiled in 2 × SDS loading buffer.
# [3] = tested on: p65 phosphorylation and IκBα phosphorylation; test: Western blot in HEK293T cells transfected with TRAF2, MyD88 or IKKβ; assay type: cell-based; details: RA-V 48 h
# Method: (§1) To determine where RA-V acts in this pathway, TRAF2, MyD88, IKKβ, or p65 plasmid was transiently transfected into HEK293T cells together with the 5 × κB-lucieferase and pTK-Renilla reporters. […] Western blots were performed to investigate the effect of RA-V on NF-κB-associated proteins in HEK293T cells transfected with the TRAF2, MyD88, or IKKβ plasmid. […] Moreover, we used a computational method to predict where RA-V is likely to act in this pathway.
# Fig. 3 RA-V represses NF-κB activation upstream of the IKK protein complex. a RA-V inhibited the TRAF2- and MyD88-induced expression of the NF-κB reporter in a dose-dependent manner. The indicated plasmids were transfected into HEK293T cells together with the 5 × κB-luciferase and pTK-Renilla reporters. Twenty-four hours after transfection, the cells were incubated with various concentrations of RA-V for 48 h before luciferase assays were performed. b RA-V inhibited TRAF2- and MyD88-induced p65 phosphorylation and IκBα phosphorylation in a dose-dependent manner. […]
# For western blot analysis, the samples were equally subjected to sodium dodecyl sulfate polyacrylamide gel electrophoresis (SDS-PAGE) and transferred to polyvinylidene difluoride membranes (Millipore). […] The protein bands were detected with the SuperSignal West Pico Chemiluminescent Substrate (Pierce).
# [4] = tested on: NF-κB-regulated reporter; test: NF-κB reporter induced by transfected TRAF2, MyD88, IKKβ or p65 plasmid; assay type: cell-based; details: HEK293T; RA-V 48 h
# Method: as §1
# Fig. 3 RA-V represses NF-κB activation upstream of the IKK protein complex. a RA-V inhibited the TRAF2- and MyD88-induced expression of the NF-κB reporter in a dose-dependent manner. The indicated plasmids were transfected into HEK293T cells together with the 5 × κB-luciferase and pTK-Renilla reporters. Twenty-four hours after transfection, the cells were incubated with various concentrations of RA-V for 48 h before luciferase assays were performed. b RA-V inhibited TRAF2- and MyD88-induced p65 phosphorylation and IκBα phosphorylation in a dose-dependent manner. HEK293T cells were transfected with TRAF2, MyD88, IKKβ, or p65 for 24 h and then treated with various concentrations of RA-V for 48 h. The cell lysates were immunoblotted with the indicated antibodies. c RA-V likely exerts its inhibitory activity on the NF-κB pathway by acting on the TRAF6-TAK1–TAB1/2 complex. […]
substance,measurement,setting,value
RA-V,competition with the CB12–TAK1 interaction (pull-down),[1],competed away
same,TAK1–TRAF6 interaction,[2],does not disrupt
same,p65 and IκBα phosphorylation in cells transfected with IKKβ plasmid,[3],no effect
same,p65 phosphorylation and IκBα phosphorylation in cells overexpressing TRAF2 or MyD88,[3],dose-dependently inhibited
same,NF-κB-regulated reporter expression in cells transfected with IKKβ or p65,[4],no effect
same,NF-κB-regulated reporter expression in cells transfected with TRAF2 or MyD88,[4],dose-dependently suppressed
